Reference: US20050118116A1, “Dental bleaching product” (UNIVERSITAT DE LES ILLES BALEARS, LABORATORIOS KIN, S.A., priority 1999, published 2005)

Assays:
[1] = speed with which a tetracycline solution is rendered colourless (spectrophotometer, 37° C.); format: biochemical; details: no peroxidase; high carbamide peroxide concentrations; FIG. 2
Source text: The mouth wash consists of a 2.4% carbamide peroxide solution in 0.1 M phosphate buffer, pH 6.5 and on the other hand, a peroxidase solution (120 units of pyrogallol/ml) in 0.1 M phosphate buffer, pH 6.5 which is fed into the container in which the de-staining reaction is to take place, immediately after the mouth wash.
The substance to be rendered colourless is tetracycline, which is solublised in water at a concentration of 0.015M. The maximum tetracycline absorption wavelength has been selected so as to monitor the de-staining speed. The de-staining speed is determined using a spectrophotometer which allows the absorption to be monitored continually, the reaction tray being thermostated at 37° C. The de-staining reaction speeds have been calculated from the relations between absorbency variation and the reaction time, and they have been expressed in nKat.
The necessary quantities of tetracycline solution, the mouth wash and enzyme (in this order) are placed in the reaction tray to obtain the parameter combinations according to which it is intended to evaluate the enzyme bleaching capacity.

[2] = tooth brightness factor before/after treatment (non-limiting example in the description); details: 1.5% carbamide peroxide, pH 6.5 phosphates; peroxidase 20 units pyrogallol/ml where present; 64% before treatment

SMILES: NC(N)=O.OO [carbamide peroxide]
- carbamide peroxide concentration from which de-staining speed saturates [1]: approximately 0.70 M
- brightness factor of a tooth after treatment [2]: 64%
